# Laboratory results from patent US10934346B2, “Modified T cell comprising a polynucleotide encoding an inducible stimulating molecule comprising MyD88, CD40 and FKBP12” (priority 2014, dated 2021).
# Read-outs that look alike come from different tables or passages of the source.
# Key:
# primary T cells = test: Activation of primary T cells with iMyD88, iCD40 or iMC after AP1903 (cytokine ELISA); settings: iMC
# Description: To examine whether MyD88, CD40 or both molecules should be included as endodomains in potential chimeric antigen receptor constructs, four distinct vectors were designed containing the AP1903-binding domains only (Fv′Fv), or genetically fused with MyD88 (iMyD88), CD40 (iCD40) or with both MyD88 and CD40 (iMC) (FIG. 41a). […] The ability of iMyD88, iCD40 or iMC to activate T cells following exposure to AP1903 by measuring IFN-γ and IL-6 production by ELISA was then assayed.
# A set of experiments was performed to examine whether MyD88, CD40 or both components were required for optimum T cell stimulation using the iMC molecule.
# [1] = cited from earlier work
# B16-F10 melanoma cells = test: IL-6 ELISA of adenovirus-transduced B16-F10 melanoma cells with AP1903; assay type: cell-based
# Description: Adenoviruses were added at 1000, 2000, 4000, 8000 and 16000 virus/cell ratio and cells were incubated for 24 hours. Then, 100 nM of AP1903 was added to all the wells, and the following day the cells and culture supernatants were harvested. A. Cells were labeled with anti-human PSMA antibody, LNI-17, (Biolegend, San Diego, Calif.) and PSMA expression was analyzed by flow cytometry. Represented is the percentage of PSMA^+ cells when compared to non-transduced cells. B. IL-6 was evaluated from the culture supernatants by ELISA (e-Bioscience, San Diego, Calif.). FIG. 28 provides the results of the assay at a different multiplicity of infection and plating concentration. B16 melanomas were cultured at 50,000 cells/ml/well in 24-well plates. Adenoviruses were added at 6000, 12000, 18000, 24000 and 30000 virus/cell ratio and cells were incubated for 24 hours. Then, 100 nM of AP1903 was added to all the wells, and the following day the cells and culture supernatants were harvested. A. Cells were labeled with anti-human PSMA antibody, LNI-17, (Biolegend, San Diego, Calif.) and PSMA expression was analyzed by flow cytometry. Represented is the percentage of PSMA^+ cells when compared to non-transduced cells. B. IL-6 was evaluated from the culture supernatants by ELISA (e-Bioscience, San Diego, Calif.). […] IL-6 was evaluated from the culture supernatants by ELISA (e-Bioscience, San Diego, Calif.)
# iMC-modified T cells = test: Titration of rimiducid on iMC-transduced T cells (T cell activation); assay type: cell-based, human
# Text: Cytokine and chemokine production. […] CAR and iMC signaling.
# [2] = test system: JNK, Akt, RelA, ERK and p38 MAPK; test: Phosphorylation of downstream signaling molecules (Milliplex MAP assay, immunoblotting); assay type: cell-based, human; settings: 10 nM rimiducid, iMC T cells
# Description: Immunoblotting. Primary human T cells transduced with either SFG-FKBP-2A-ΔCD19 or SFG-iMC-2A-ΔCD19 (4×10^6 per point) were cultured for the indicated time points in a 37° C. water bath with either 10 nM rimiducid, 250 nM each PMA and ionomycin, or media alone. Media as removed by aspiration after centrifugation at 6000 rpm for 2 min at 4° C. Cytoplasmic extracts were prepared by lysis in 100 μl radioimmuno-precipitation assay buffer (50 mM Tris, 150 mM NaCl, 1% NP40, 2 mM EDTA, 0.1% SDS, 0.25% sodium deoxycholate) containing 1×MS-SAFE (Roche). Lysates were incubated on ice for 10 min and cytoplasmic fractions were cleared by centrifugation at 11,000 rpm for 20 min at 4° C. […] Bound Abs were detected by HRP-conjugated goat-anti-rabbit IgG Ab (Pierce), followed by ECL (Pierce) and detection on a Gel Logic imaging system (Carestream). […]
# Phosphorylated epitopes were detected in Assay Buffer 2 (MILLIPLEX MAP kit) with antibodies specific for p-RelA(S536), p-Akt(S473), p-p38(T180/Y182), p-JNK(T183/Y185), p-ERK1/2(T202/Y204) (custom MILLIPLEX Magnetic Bead MAPMATE kit; Millipore) or GAPDH as a control for total protein content. Fold increase in phosphorylation was calculated by net MFI of rimiducid treatment at a given time point divided by the net MFI of the corresponding non-stimulated time point. […]
# BLK CL4 fibroblasts = test: IL-6 ELISA of adenovirus-transduced BLK CL4 fibroblasts with AP1903; assay type: cell-based; settings: 100 nM AP1903
# Description: BLK.CL4 fibroblasts were cultured at 175,000 cells/ml/well in 24-well plates. Adenoviruses were added at 6000, 12000, 18000, 24000 and 30000 virus/cell ratio and cells were incubated for 24 hours. Then, 100 nM of AP1903 was added to all the wells, and the following day cells and culture supernatants were harvested. A. Cells were labeled with anti-human PSMA antibody, LNI-17, (Biolegend, San Diego, Calif.) and PSMA expression was analyzed by flow cytometry. Represented is the percentage of PSMA^+ cells when compared to non-transduced cells. B. IL-6 was evaluated from the culture supernatants by ELISA (e-Bioscience, San Diego, Calif.). For FIG. 31, BLK.CL4 fibroblasts were cultured at 350,000 cells/well in 6-well plates. Adenoviruses were added at 20,000 v.p./cell ratio and cells were incubated for 24 hours. Then, 100 nM of AP1903 was added, and the following day culture supernatants were harvested. IL-6 was evaluated from the culture supernatants by ELISA (e-Bioscience, San Diego, Calif.).
compound,measurement,setting,value
"CC[C@H](C(=O)N1CCCC[C@H]1C(=O)O[C@H](CCc1ccc(OC)c(OC)c1)c1cccc(OCC(=O)NCCNC(=O)COc2cccc([C@@H](CCc3ccc(OC)c(OC)c3)OC(=O)[C@@H]3CCCCN3C(=O)[C@@H](CC)c3cc(OC)c(OC)c(OC)c3)c2)c1)c1cc(OC)c(OC)c(OC)c1 (relative stereo) [rimiducid, 2-Piperidinecarboxylic acid, 1-[(2S)-1-oxo-2-(3,4,5-trimethoxyphenyl)butyl]-, 1,2-ethanediylbis [imino(2-oxo-2,1-ethanediyl)oxy-3,1-phenylene[(1R)-3-(3,4-Dimethoxyphenyl)propylidene]] ester, [2S-[1(R*),2R*[S*[S*[1(R*),2R*]]]]]-(9Cl)]",IL-1 secretion,primary T cells,IL-1a and β are secreted
same,plasma levels versus dose,"[1]; 0.01, 0.05, 0.1, 0.5 and 1.0 mg/kg",directly proportional to dose
same,plasma level as % of maximal concentration,[1]; 0.5 hours post-dose,approximately 18%
same,plasma level as % of maximal concentration,[1]; 2 hours post-dose,~7%
same,plasma level as % of maximal concentration,[1]; 10 hours post-dose,~1%
same,well-tolerated doses,[1]; Phase I study,up to 1 mg/kg
same,mean Cmax,"[1]; plasma, over the 0.01-1.0 mg/kg dose range, infused IV over 2 hours",10 to 1275 ng/mL
same,IL-6 production,B16-F10 melanoma cells; 100 nM AP1903,response to AP1903 by producing IL-6
same,IL-6 production without ligand,B16-F10 melanoma cells; presence and absence of AP1903,transduced cells produce IL-6 without the addition of AP1903
same,EC50,"iMC-modified T cells; Homo sapiens, T-cell, FIG. 1b, read-out: EC50, activation of T cells through the iMC switch",~0.12 nM
same,activation of iMC-transduced T cells,iMC-modified T cells; […],dose-dependent activation
same,onset of signaling after exposure,[2],≤ 15 min
same,phosphorylation of signaling pathways,[2],"each of these signaling pathways show increased phosphorylation in T cells, with MAPK and JNK showing the greatest rimiducid-dependent activation"
same,IL-6 production,BLK CL4 fibroblasts,response to AP1903 by producing IL-6
